According to publication PMC9116259, “Discovery of new nicotinamides as apoptotic VEGFR-2 inhibitors: virtual screening, synthesis, anti-proliferative, immunomodulatory, ADMET, toxicity, and molecular dynamic simulation studies” (Journal of Enzyme Inhibition and Medicinal Chemistry, 2022):

Assays:
HCT-116 cells [1] = test: In vitro anti-proliferative activity, MTT test, HCT-116; format: cell-based; conditions: Homo sapiens, read-out: In vitro cytotoxicity IC50 HCT-116
Protocol: (§1) The in vitro anti-proliferative effects of the four synthesised members were assessed against two cancer cell lines namely, hepatocellular carcinoma (HepG-2) and colorectal carcinoma (HCT-116) cell lines, by the standard MTT test[29]. HepG-2 and HCT-116 cell lines were precisely selected relying on their VEGF overexpression. […] The cytotoxicity results were established in Table 7.
(§2) The anti-proliferative activity of the four members was estimated by the MTT protocol as described[38–41] (Supplementary data).

HepG-2 cells = test: In vitro anti-proliferative activity, MTT test, HepG-2; format: cell-based; conditions: for IC50: Homo sapiens, HepG2, MTT, HepG-2, read-out: In vitro cytotoxicity IC50 HepG-2
Protocol: as §1, §2

VEGFR-2 = target: T1, VEGFR-2 (Homo sapiens, UniProt P35968); test: Assessment of VEGFR-2 inhibition in HCT-116 cells; format: cell-based; conditions: HCT-116 cells treated at concentrations equal to the cytotoxic ones; read-out: VEGFR-2 protein concentration (called VEGFR-2 inhibitory IC50 in text)
T1 construct: in vitro investigation against VEGFR-2 in HCT-116 cells; endogenous in cells; host or cells: HCT-116
T1 sequence (P35968 20-1356): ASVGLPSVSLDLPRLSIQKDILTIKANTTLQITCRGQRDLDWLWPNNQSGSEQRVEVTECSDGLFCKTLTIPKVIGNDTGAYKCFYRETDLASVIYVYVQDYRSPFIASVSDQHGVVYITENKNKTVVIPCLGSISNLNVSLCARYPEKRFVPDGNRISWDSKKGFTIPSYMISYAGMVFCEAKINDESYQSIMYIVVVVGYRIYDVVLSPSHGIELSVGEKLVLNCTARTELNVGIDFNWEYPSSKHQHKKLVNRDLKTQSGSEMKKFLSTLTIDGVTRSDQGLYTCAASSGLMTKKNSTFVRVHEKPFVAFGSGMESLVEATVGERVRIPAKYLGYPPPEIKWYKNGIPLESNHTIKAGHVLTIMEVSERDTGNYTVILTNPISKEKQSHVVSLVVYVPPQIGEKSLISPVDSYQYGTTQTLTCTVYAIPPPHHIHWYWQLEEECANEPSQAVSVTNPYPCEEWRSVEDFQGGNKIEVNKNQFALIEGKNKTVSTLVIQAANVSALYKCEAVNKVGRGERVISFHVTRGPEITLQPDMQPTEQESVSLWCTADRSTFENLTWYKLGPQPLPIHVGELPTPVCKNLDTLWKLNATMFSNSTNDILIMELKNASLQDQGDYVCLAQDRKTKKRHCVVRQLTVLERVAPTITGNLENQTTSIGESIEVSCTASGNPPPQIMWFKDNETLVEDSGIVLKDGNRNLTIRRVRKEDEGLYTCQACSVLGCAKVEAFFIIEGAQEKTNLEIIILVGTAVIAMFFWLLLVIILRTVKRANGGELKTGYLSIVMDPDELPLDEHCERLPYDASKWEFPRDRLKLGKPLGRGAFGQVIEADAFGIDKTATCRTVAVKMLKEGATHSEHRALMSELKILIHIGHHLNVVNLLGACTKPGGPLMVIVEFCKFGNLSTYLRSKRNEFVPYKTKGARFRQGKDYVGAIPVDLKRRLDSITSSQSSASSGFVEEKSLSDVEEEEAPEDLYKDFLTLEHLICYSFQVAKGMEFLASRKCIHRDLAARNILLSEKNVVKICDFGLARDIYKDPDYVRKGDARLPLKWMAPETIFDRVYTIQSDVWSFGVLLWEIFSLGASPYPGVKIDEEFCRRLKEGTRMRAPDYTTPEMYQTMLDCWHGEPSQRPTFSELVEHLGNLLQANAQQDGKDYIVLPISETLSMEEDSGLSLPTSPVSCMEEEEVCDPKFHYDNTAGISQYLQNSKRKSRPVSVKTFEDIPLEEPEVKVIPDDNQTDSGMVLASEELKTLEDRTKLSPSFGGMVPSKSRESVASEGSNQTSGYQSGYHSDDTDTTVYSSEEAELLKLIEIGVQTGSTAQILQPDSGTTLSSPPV
Source text: The designed congeners were, also, subject to an in vitro investigation against VEGFR-2 in HCT-116 cells.
The four selected members were further assessed to measure their inhibitory activities against the VEGFR-2 enzyme following the protocol shown in Supplementary data.

IL6 = test: In vitro immunomodulatory assay, IL6 (ELISA) in HCT-116 cells; format: cell-based; conditions: C-6 (21.8 µM), D-1 (3.08 µM), 48 h
Protocol: (§3) Compounds C-6 and D-1 were further assayed for their immunomodulatory effect on HCT-116 cells. Two immunity-related markers were measured namely, human tumour necrosis factor alpha (TNF-α), and interleukin 6 (IL6). Dexamethasone, a potent inhibitor of both TNF-α and IL6, was used as a positive control.
(§4) The level of TNF-α and IL6 in cell culture supernatants was assessed by the ELISA technique according to the reported procedure[50]^,[51].

TNF-α = test: In vitro immunomodulatory assay, TNF-α (ELISA) in HCT-116 cells; format: cell-based, human; conditions: C-6 (21.8 µM), D-1 (3.08 µM), 48 h
Protocol: as §3, §4

BAX = BAX level in treated HCT-116 cells; format: cell-based
Protocol: (§5) Upregulation of the proapoptotic genes in addition to the downregulation of the anti-apoptotic ones, thus, confirmed the apoptotic behaviour of the designed compound.
(§6) Estimation of caspase-3 levels after treatment of cells with compound D-1 was performed according to the protocol described by M. Andersson et al.[42]. While Bax and Bcl-2 cellular levels were evaluated for D-1 in HCT-116 cells according to the reported protocol[43] (Supplementary data).

caspase-8 = test: Caspase-8 concentration in treated HCT-116 cells; format: cell-based
HCT-116 cells [2] = test: Annexin-V/propidium iodide apoptosis assay in HCT-116 cells; format: cell-based; conditions: HCT-116, 3.08 µM for 48 h
Protocol: Since the induction of apoptosis is a key determinant in the drug’s therapeutic outcome, the ability of the best cytotoxic member D-1 to induce apoptosis in colorectal carcinoma (HCT-116) cells was evaluated using Annexin-V/propidium iodide (PI) staining assay. […] The percentage of early and late apoptotic populations elevated from 0.7% and 1.73% in the untreated cells to 4.36% and 17.62% in the D-1 treated cells (Table 10 and Figures 11 and 12).
Annexin‐V‐FITC assay for compound D-1 on HCT-116 cells according to the reported procedure[15]^,[47–49] (Supplementary data).

Bcl-2 = Bcl-2 level in treated HCT-116 cells; format: cell-based
Protocol: as §5, §6

HCT-116 cells [3] = test: Cell cycle analysis by flow cytometry in HCT-116 cells; format: cell-based; conditions: HCT-116, 3.08 µM for 48 h
Source text: Aiming to obtain a further understanding of the mechanism that triggers the anticancer activity of D-1, the cell cycle progression was investigated using flow cytometry in HCT-116 cells.
Based on the protocol referred to by Léonce et al., the flow cytometric analysis for congener D-1 was done[19]^,[44–46] (Supplementary data).

| SMILES | IC50 (HCT-116 cells [1]) | IC50 (HepG-2 cells) | IC50 (VEGFR-2) | % Inhibition of IL6 (IL6) | % Inhibition of TNF-α (TNF-α) | also measured |
| --- | --- | --- | --- | --- | --- | --- |
| CC(=NNC(=O)c1cccnc1)c1ccc(NC(=O)c2cccnc2)cc1 [Compound A-1, N-(4–(1-(2-Nicotinoylhydrazineylidene)ethyl)phenyl)nicotinamide] | 34.9 ± 0.084 µM | 18.07 ± 0.052 µM | 0.0221 µM |  |  |  |
| CC(=NNC(=O)c1ccccc1)c1ccc(NC(=O)c2cccnc2)cc1 [Compound B-1, N-(4–(1-(2-Benzoylhydrazineylidene)ethyl)phenyl)nicotinamide] | 19.6 ± 0.052 µM | 17.4 ± 0.05 µM | 0.08 µM |  |  |  |
| CC(=NO)c1ccc(NC(=O)c2cccnc2)cc1 [Compound C-6, N-(4–(1-(Hydroxyimino)ethyl)phenyl)nicotinamide] | 21.8 ± 0.057 µM | 15.9 ± 0.045 µM | 0.0157 µM | 75.21% | 86.48% |  |
| CC(=NNc1ccccc1)c1ccc(NC(=O)c2cccnc2)cc1 [Compound D-1, N-(4–(1-(2-Phenylhydrazineylidene)ethyl)phenyl)nicotinamide] | 3.08 ± 0.002 µM | 4.09 ± 0.005 µM | 0.0231 µM | 85.64% | 91.19% | increase of BAX expression level (BAX; HCT-116 cells, versus control): 9.52 fold; BAX (BAX; treated HCT-116 cells): 401.79 pg/mL; increase of caspase-8 level (caspase-8; HCT-116 cells, versus control): 10.41 fold; Caspase-8 (caspase-8; treated HCT-116 cells): 523.61 pg/mL; Apoptosis Early (HCT-116 cells [2]; % given in Figure 11): 4.36%; Apoptosis Late (HCT-116 cells [2]; % given in Figure 11): 17.62%; Apoptosis Total (HCT-116 cells [2]; % given in Figure 11): 23.68%; Necrosis (HCT-116 cells [2]; % printed in Figure 11): 1.7%; activity against HepG-2, fold more than sorafenib (HepG-2 cells; ratio of IC50 values versus sorafenib): about 1.2 fold; decrease of Bcl-2 level to (Bcl-2; HCT-116 cells, versus control): 0.23 fold; Bcl-2 (Bcl-2; treated HCT-116 cells): 1.274 pg/mL; %G0-G1 (HCT-116 cells [3]): 41.26%; %G2-M (HCT-116 cells [3]): 30.37%; %Pre-G1 (HCT-116 cells [3]): 23.68%; %S (HCT-116 cells [3]): 28.37% |
| C[C@@H]1C[C@H]2[C@@H]3CCC4=CC(=O)C=C[C@]4(C)[C@@]3(F)[C@@H](O)C[C@]2(C)[C@@]1(O)C(=O)CO [Dexamethasone, reference compound] |  |  |  | 93.15% | 82.47% |  |
| CNC(=O)c1cc(Oc2ccc(NC(=O)Nc3ccc(Cl)c(C(F)(F)F)c3)cc2)ccn1 [Sorafenib, sorafenib, reference compound] | 7.28 ± 0.58 µM | 5.28 ± 0.21 µM |  |  |  |  |
